The supplement of paper PMC4862054

Assays:
CAL-120 [1] = assay: normalised response (% of control), CellTiter-Glo; higher = more viable cells (100 = DMSO, 0 = benzethonium chloride kill control); conditions: incubation time: 72 h
Method: (§1)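 DSRT, 72 h incubation, CellTox Green / CellTiter-Glo readout. Signal is normalised to DMSO and benzethonium chloride controls. Value is the normalised response at the highest dose.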

CAL-148 = assay: as above; conditions: incubation time: 72 h
Method: as §1

DU-4475 = assay: as above; conditions: incubation time: 72 h
Method: as §1

HCC1599 [2] = assay: as above; conditions: incubation time: 72 h
Method: as §1

HCC1937 [3] = assay: as above; conditions: incubation time: 72 h
Method: as §1

Hs578T = assay: as above; conditions: incubation time: 72 h
Method: as §1

MDA-MB-231 [4] = assay: as above; conditions: incubation time: 72 h
Method: as §1

MDA-MB-453 = assay: as above; conditions: incubation time: 72 h
Method: as §1

BT-549 [5] = conditions: 72 h
Outline: (§2)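 Breast cancer cell lines in 20 µl suspension were seeded onto 384-well plates pre-loaded with compound dissolved in 5 µl medium, then incubated 72 h. For viability, 2.5 µl CellTiter-Blue was added for 2 h at 37 °C and fluorescence read at 560/590 nm. Each plate was normalised to vehicle and a positive kill control and checked by Z'-factor. EC50 comes from the fitted percent-inhibition dose-response curve, censored at the highest concentration; rows with zero drug sensitivity score were dropped.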

HCC1599 [6] = conditions: 72 h
Outline: as §2

HCC1143 = assay: normalised viability (% of control), CellTiter-Blue; higher = more viable cells (about 100 = DMSO control); conditions: incubation time: 72 h
Outline: (§3)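 Each entry is normalised viability at a single listed concentration within a series. It comes from breast cancer cell lines incubated 72 h with compound in 384-well plates, then measured with CellTiter-Blue fluorescence at 560/590 nm. Every plate was normalised between vehicle (100) and a positive kill control (0).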

HCC1599 [7] = assay: as above; conditions: incubation time: 72 h
Outline: as §3

HCC1937 [8] = assay: as above; conditions: incubation time: 72 h
Outline: as §3

SK-BR-3 = assay: as above; conditions: incubation time: 72 h
Outline: as §3

MDA-MB-231 [9] = conditions: 72 h
Outline: as §2

BT-474 = conditions: 72 h
Outline: (§4)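 Two sequential readouts followed a 72 h incubation of breast cancer cell lines with compound at 5 concentrations in 10-fold steps over a compound-specific 10,000-fold range: CellTox Green fluorescence (485/520 nm) for cell death, then CellTiter-Glo luminescence, after 10 min at room temperature, for viability. Each plate was normalised to 0.1 % DMSO and a positive kill control. Dose-response curves were fitted for EC50, censored at the top concentration.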

BT-549 [10] = conditions: 72 h; remark: listed apart in the source
Outline: as §4

CAL-120 [11] = conditions: 72 h
Outline: as §4

CAL-51 = conditions: 72 h
Outline: as §4

MDA-MB-468 = conditions: 72 h
Outline: as §4

Molecule `CCOc1cc2ncc(C#N)c(Nc3ccc(OCc4ccccn4)c(Cl)c3)c2cc1NC(=O)/C=C/CN(C)C` [Neratinib] (1000 nM) has a normalised response (CAL-120 [1]) of 68.4%, a normalised response (CAL-148) of 68.8% and a normalised response (DU-4475) of 95.3%. For the same molecule, the normalised response (HCC1599 [2]) was 95.5%, the normalised response (HCC1937 [3]) was 66.1% and the normalised response (Hs578T) was 72.3%. The normalised response (MDA-MB-231 [4]) was 74.2% and the normalised response (MDA-MB-453) was 63.7%.

`COc1ccc(C2=N[C@@H](c3ccc(Cl)cc3)[C@@H](c3ccc(Cl)cc3)N2C(=O)N2CCNC(=O)C2)c(OC(C)C)c1` [Nutlin-3] (10000 nM) gave a normalised response (CAL-120 [1]) of 100%, a normalised response (CAL-148) of 71.4% and a normalised response (DU-4475) of 72.7%. For the same molecule, the normalised response (HCC1599 [2]) was 98.5%, the normalised response (HCC1937 [3]) was 97.6% and the normalised response (Hs578T) was 102%. For the same molecule, the normalised response (MDA-MB-231 [4]) was 91.9% and the normalised response (MDA-MB-453) was 68.7%.

For `COC1=CC(c2cc3ccccc3[nH]2)=N/C1=C\c1[nH]c(C)cc1C` [Obatoclax] (10000 nM), the normalised response (CAL-120 [1]) was 92.5%, the normalised response (CAL-148) was 76.5% and the normalised response (DU-4475) was 84%. For the same molecule, the normalised response (HCC1599 [2]) was 88.2%, the normalised response (HCC1937 [3]) was 67.7% and the normalised response (Hs578T) was 74.7%. For the same molecule, the normalised response (MDA-MB-231 [4]) was 66.9% and the normalised response (MDA-MB-453) was 57.5%.

Work on `CC(=O)O[C@H]1C(=O)[C@@]2(C)[C@H]([C@H](OC(=O)c3ccccc3)[C@]3(O)C[C@H](OC(=O)[C@H](O)[C@@H](NC(=O)c4ccccc4)c4ccccc4)C(C)=C1C3(C)C)[C@]1(OC(C)=O)CO[C@@H]1C[C@@H]2O` [Paclitaxel] (1000 nM) yielded a normalised response (CAL-120 [1]) of 48.9%, a normalised response (CAL-148) of 44.1% and a normalised response (DU-4475) of 34.8%. For the same molecule, the normalised response (HCC1599 [2]) was 33.6%, the normalised response (HCC1937 [3]) was 64.7% and the normalised response (Hs578T) was 9.73%. The normalised response (MDA-MB-231 [4]) was 25.3% and the normalised response (MDA-MB-453) was 51.5%.

With `CC(C)(C)c1cc(NC(=O)Nc2ccc(-c3cn4c(n3)sc3cc(OCCN5CCOCC5)ccc34)cc2)no1` [Quizartinib] the “EC50, CellTiter-Blue viability” value (BT-549 [5]) was 259 nM, the “EC50, CellTiter-Blue viability” value (HCC1599 [6]) was 878 nM and the normalised viability (HCC1143; 1 nM) was 94.3%. The normalised viability (HCC1143; 100 nM) was 95.8%, the normalised viability (HCC1143; 1000 nM) was 94.9% and the normalised viability (HCC1599 [7]; 1 nM) was 119%. For the same molecule, the normalised viability (HCC1599 [7]; 100 nM) was 105%, the normalised viability (HCC1599 [7]; 1000 nM) was 63.6% and the normalised viability (HCC1937 [8]; 1 nM) was 59.2%. For the same molecule, the normalised viability (HCC1937 [8]; 100 nM) was 81.8%, the normalised viability (HCC1937 [8]; 1000 nM) was 99.8% and the normalised viability (SK-BR-3; 1 nM) was 88.4%. The normalised viability (SK-BR-3; 100 nM) was 93.5% and the normalised viability (SK-BR-3; 1000 nM) was 96.5%.

Molecule `CC(C)(C)c1cc(NC(=O)Nc2ccc(-c3cn4c(n3)sc3cc(OCCN5CCOCC5)ccc34)cc2)no1` [Quizartinib] (1000 nM) has a normalised response (CAL-120 [1]) of 112%, a normalised response (CAL-148) of 108% and a normalised response (DU-4475) of 105%. For the same molecule, the normalised response (HCC1599 [2]) was 88.6%, the normalised response (HCC1937 [3]) was 104% and the normalised response (Hs578T) was 92.6%. For the same molecule, the normalised response (MDA-MB-231 [4]) was 113% and the normalised response (MDA-MB-453) was 97%.

In the case of `COc1cc(Nc2ncc(F)c(Nc3ccc4c(n3)NC(=O)C(C)(C)O4)n2)cc(OC)c1OC` [R406], the “EC50, CellTiter-Blue viability” value (BT-549 [5]) is reported as 1030 nM, the “EC50, CellTiter-Blue viability” value (MDA-MB-231 [9]) is reported as 1040 nM and the normalised viability (HCC1143; 10 nM) is reported as 81.2%. It also gave a normalised viability (HCC1143; 1000 nM) of 83.5%, a normalised viability (HCC1143; 10000 nM) of 84.4% and a normalised viability (HCC1599 [7]; 10 nM) of 105%. For the same molecule, the normalised viability (HCC1599 [7]; 1000 nM) was 112%, the normalised viability (HCC1599 [7]; 10000 nM) was 104% and the normalised viability (HCC1937 [8]; 10 nM) was 105%. The normalised viability (HCC1937 [8]; 1000 nM) was 98.2%, the normalised viability (HCC1937 [8]; 10000 nM) was 86% and the normalised viability (SK-BR-3; 10 nM) was 104%. For the same molecule, the normalised viability (SK-BR-3; 1000 nM) was 98.3% and the normalised viability (SK-BR-3; 10000 nM) was 112%.

For `O=C(c1ccc(OCCN2CCCCC2)cc1)c1c(-c2ccc(O)cc2)sc2cc(O)ccc12` [Raloxifene] (10000 nM), the normalised response (CAL-120 [1]) was 82.2%, the normalised response (CAL-148) was 99.4% and the normalised response (DU-4475) was 90.1%. For the same molecule, the normalised response (HCC1599 [2]) was 49.1%, the normalised response (HCC1937 [3]) was 79.1% and the normalised response (Hs578T) was 96.9%. The normalised response (MDA-MB-231 [4]) was 68.5% and the normalised response (MDA-MB-453) was 66.1%.

Molecule `Cn1c(=O)c(F)c(Nc2ccc(I)cc2F)c2c(=O)n(C[C@@H](O)CO)cnc21` [TAK-733] (1000 nM) has a normalised response (CAL-120 [1]) of 64.2%, a normalised response (CAL-148) of 98.9% and a normalised response (DU-4475) of 0.81%. It also gave a normalised response (HCC1599 [2]) of 82%, a normalised response (HCC1937 [3]) of 68.3% and a normalised response (Hs578T) of 70.2%. It also gave a normalised response (MDA-MB-231 [4]) of 56.4% and a normalised response (MDA-MB-453) of 97.7%.

In the case of `CCS(=O)(=O)c1cccc(-c2cc(C(=O)NC3CCN(C)CC3)c(C)c3[nH]c4ncc(C)cc4c23)c1` [TAK-901] (1000 nM), the normalised response (CAL-120 [1]) is reported as 52.8%, the normalised response (CAL-148) is reported as 92.8% and the normalised response (DU-4475) is reported as 84.9%. For the same molecule, the normalised response (HCC1599 [2]) was 82.3%, the normalised response (HCC1937 [3]) was 64.5% and the normalised response (Hs578T) was 75.2%. The normalised response (MDA-MB-231 [4]) was 23% and the normalised response (MDA-MB-453) was 104%.

With `Cc1cc(C(C)Nc2ccccc2)c2nc(N3CCOCC3)cc(=O)n2c1` (stereo not given) [TGX-221] the “EC50, CellTiter-Glo” value (BT-474) was 709 nM, the “EC50, CellTiter-Glo” value (BT-549 [10]) was 947 nM and the “EC50, CellTiter-Glo” value (CAL-120 [11]) was > 10000 nM. The “EC50, CellTiter-Glo” value (CAL-51) was 22.8 nM and the “EC50, CellTiter-Glo” value (MDA-MB-468) was 3560 nM.

With `COc1cc(Nc2ncc(F)c(Nc3ccc4c(n3)NC(=O)C(C)(C)O4)n2)cc(OC)c1OC` [Tamatinib] the “EC50, CellTiter-Glo” value (BT-549 [10]) was 650 nM and the “EC50, CellTiter-Glo” value (CAL-51) was 2310 nM.

In the case of `c1ccc(C2CN3CCSC3=N2)cc1` (stereo not given) [Tetramisole], the normalised viability (HCC1143; 10 nM) is reported as 105%, the normalised viability (HCC1143; 1000 nM) is reported as 118% and the normalised viability (HCC1143; 10000 nM) is reported as 109%. The normalised viability (HCC1599 [7]; 10 nM) was 102%, the normalised viability (HCC1599 [7]; 1000 nM) was 91.2% and the normalised viability (HCC1599 [7]; 10000 nM) was 107%. It also gave a normalised viability (HCC1937 [8]; 10 nM) of 117%, a normalised viability (HCC1937 [8]; 1000 nM) of 105% and a normalised viability (HCC1937 [8]; 10000 nM) of 103%. For the same molecule, the normalised viability (SK-BR-3; 10 nM) was 107%, the normalised viability (SK-BR-3; 1000 nM) was 101% and the normalised viability (SK-BR-3; 10000 nM) was 105%.

For `C[C@@H]1CCN(C(=O)CC#N)C[C@@H]1N(C)c1ncnc2[nH]ccc12` [Tofacitinib], the “EC50, CellTiter-Glo” value (CAL-51) was 52.1 nM.

For `CCCC(CCC)C(=O)O` [Valproic acid], the “EC50, CellTiter-Glo” value (CAL-51) was 441000 nM, the normalised viability (HCC1143; 10 nM) was 110% and the normalised viability (HCC1143; 1000 nM) was 104%. The normalised viability (HCC1143; 10000 nM) was 94.4%, the normalised viability (HCC1599 [7]; 10 nM) was 97.4% and the normalised viability (HCC1599 [7]; 1000 nM) was 90.7%. It also gave a normalised viability (HCC1599 [7]; 10000 nM) of 82%, a normalised viability (HCC1937 [8]; 10 nM) of 126% and a normalised viability (HCC1937 [8]; 1000 nM) of 86%. It also gave a normalised viability (HCC1937 [8]; 10000 nM) of 92.6%, a normalised viability (SK-BR-3; 10 nM) of 102% and a normalised viability (SK-BR-3; 1000 nM) of 107%. It also gave a normalised viability (SK-BR-3; 10000 nM) of 95.9%.
